“Also recorded” adds a separate entry of the source. Read-outs that look alike come from different tables or passages of the source.
Tests used:
[1] = test system: Human Echovirus-30 Bastianni; settings: read-out: 50% Effective concentration EC50, RD, lowest concentration tested 0.032 μM
[2] = test system: Coxsackievirus B3-Woodruff (CVB3); type: cell-based; settings: read-out: Inhibitory concentration EC50 against CVB3-Woodruff; HeLa cells; infecting at low MOI 0.1 PFU / cell and adding drug after infection is established; ± SEM
SARS-CoV-2 USA/WA1/2020 = experiment: CPE reduction assay, SARS-CoV-2 USA/WA1/2020; type: cell-based; settings: read-out: 50% Effective concentration EC50; SARS-CoV-2 USA/WA1/2020, Vero 76, CPE
[3] = test system: ma-EV-D68 US/MO/14-18949 (Mouse adapted); experiment: CPE reduction assay, ma-EV-D68 US/MO/14-18949; type: cell-based; settings: read-out: 50% Effective concentration EC50, RD
EV-71 Tainan/4643/98 [4] = settings: read-out: 50% Effective concentration EC50; EV-71 Tainan/4643/98, Vero 76, CPE
MDCK = experiment: Cytotoxicity; type: cell-based; settings: read-out: 50% Cytotoxic concentration CC50, line of Influenza H1N1
EV-71 Tainan/4643/98 [5] = experiment: Virus yield reduction assay, EV-71 Tainan/4643/98; type: cell-based; settings: read-out: 90% Effective concentration EC90; EV-71 Tainan/4643/98, Vero 76, virus yield reduction
[6] = test system: Human Echovirus-11 Gregory; settings: read-out: 50% Effective concentration EC50, RD, lowest concentration tested 0.032 μM
Coxsackievirus B5 (CVB5) = experiment: CVB5 CPE rescue; type: cell-based
CYP3A4 [7] = molecular target: CYP3A4 (Homo sapiens, UniProt P08684)
[8] = molecular target: T1, pregnane X-receptor (PXR) (Homo sapiens, UniProt O75469); experiment: PXR agonist activity
T1 sequence (O75469 1-434): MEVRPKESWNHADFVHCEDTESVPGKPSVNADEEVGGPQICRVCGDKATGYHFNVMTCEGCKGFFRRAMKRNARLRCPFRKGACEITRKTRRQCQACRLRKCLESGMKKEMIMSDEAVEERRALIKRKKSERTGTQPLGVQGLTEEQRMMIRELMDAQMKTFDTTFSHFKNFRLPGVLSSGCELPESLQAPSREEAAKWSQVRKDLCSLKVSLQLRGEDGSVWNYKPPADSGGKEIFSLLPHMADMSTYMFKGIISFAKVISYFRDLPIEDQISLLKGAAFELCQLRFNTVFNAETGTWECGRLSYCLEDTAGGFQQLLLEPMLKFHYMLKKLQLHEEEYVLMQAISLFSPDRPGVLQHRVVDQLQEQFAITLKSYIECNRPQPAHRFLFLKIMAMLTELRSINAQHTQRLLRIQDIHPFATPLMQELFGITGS

EV-D68 US/KY/14-18953 = settings: read-out: 50% Effective concentration EC50; EV-D68 US/KY/14-18953, RD, CPE
Coxsackie B3 Nancy = settings: read-out: 50% Effective concentration EC50, Vero 76, CPE
RD = experiment: Cytotoxicity; type: cell-based, human
hERG = hERG (Homo sapiens, UniProt Q12809); experiment: hERG inhibition; settings: read-out: hERG inhibition IC50
[9] = test system: Human Echovirus-30 Bastianni; experiment: Virus yield reduction assay, Human Echovirus-30 Bastianni; type: cell-based; settings: read-out: 90% Effective concentration EC90, RD, lowest concentration tested 0.032 μM
Caco-2 = Caco-2 permeability; type: in vitro ADME
CYP3A4 [10] = settings: 1 μM, rifampicin as positive control, previously tested
[11] = Human liver microsomes stability; type: in vitro ADME
EV-D68 = experiment: In vitro inhibition of EV-D68; type: cell-based; settings: read-out: EC50 against EV-D68; discussion
CYP2C9 = CYP2C9 (Homo sapiens, UniProt P11712); experiment: CYP inhibition, CYP2C9; type: in vitro ADME; settings: read-out: CYP inhibition
[12] = test system: EV-D68 MP30 PP (mouse-adapted); experiment: EV-D68 neurological infection; type: in vivo, AG129 mice; settings: for Mean day of death: placebo 5.5 days
Mouse plasma stability = type: in vitro ADME; settings: @ 5 hr, 37°C
CYP2D6 = CYP2D6 (Homo sapiens, UniProt P10635); experiment: CYP inhibition, CYP2D6; type: in vitro ADME; settings: read-out: CYP inhibition
CYP2C19 = CYP2C19 (Homo sapiens, UniProt P33261); experiment: CYP inhibition, CYP2C19; type: in vitro ADME; settings: read-out: CYP inhibition
Human plasma stability = type: in vitro ADME; settings: @ 5 hr, 37°C

CYP3A4 (Homo sapiens, UniProt P08684), sequence (P08684 whole entry): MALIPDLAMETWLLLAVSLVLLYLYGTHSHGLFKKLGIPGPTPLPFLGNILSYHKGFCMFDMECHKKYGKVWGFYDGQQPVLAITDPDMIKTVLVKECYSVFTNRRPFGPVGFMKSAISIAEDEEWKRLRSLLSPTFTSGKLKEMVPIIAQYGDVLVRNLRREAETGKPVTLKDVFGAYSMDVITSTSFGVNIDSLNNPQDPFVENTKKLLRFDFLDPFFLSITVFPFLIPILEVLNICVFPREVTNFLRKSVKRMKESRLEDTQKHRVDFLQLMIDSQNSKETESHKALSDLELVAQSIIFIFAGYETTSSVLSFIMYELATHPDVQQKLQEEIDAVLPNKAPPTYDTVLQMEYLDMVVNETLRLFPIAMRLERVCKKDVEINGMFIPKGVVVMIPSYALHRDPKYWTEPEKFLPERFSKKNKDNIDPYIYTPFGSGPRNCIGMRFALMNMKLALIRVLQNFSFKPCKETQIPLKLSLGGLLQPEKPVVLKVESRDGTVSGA
hERG, sequence (Q12809 whole entry): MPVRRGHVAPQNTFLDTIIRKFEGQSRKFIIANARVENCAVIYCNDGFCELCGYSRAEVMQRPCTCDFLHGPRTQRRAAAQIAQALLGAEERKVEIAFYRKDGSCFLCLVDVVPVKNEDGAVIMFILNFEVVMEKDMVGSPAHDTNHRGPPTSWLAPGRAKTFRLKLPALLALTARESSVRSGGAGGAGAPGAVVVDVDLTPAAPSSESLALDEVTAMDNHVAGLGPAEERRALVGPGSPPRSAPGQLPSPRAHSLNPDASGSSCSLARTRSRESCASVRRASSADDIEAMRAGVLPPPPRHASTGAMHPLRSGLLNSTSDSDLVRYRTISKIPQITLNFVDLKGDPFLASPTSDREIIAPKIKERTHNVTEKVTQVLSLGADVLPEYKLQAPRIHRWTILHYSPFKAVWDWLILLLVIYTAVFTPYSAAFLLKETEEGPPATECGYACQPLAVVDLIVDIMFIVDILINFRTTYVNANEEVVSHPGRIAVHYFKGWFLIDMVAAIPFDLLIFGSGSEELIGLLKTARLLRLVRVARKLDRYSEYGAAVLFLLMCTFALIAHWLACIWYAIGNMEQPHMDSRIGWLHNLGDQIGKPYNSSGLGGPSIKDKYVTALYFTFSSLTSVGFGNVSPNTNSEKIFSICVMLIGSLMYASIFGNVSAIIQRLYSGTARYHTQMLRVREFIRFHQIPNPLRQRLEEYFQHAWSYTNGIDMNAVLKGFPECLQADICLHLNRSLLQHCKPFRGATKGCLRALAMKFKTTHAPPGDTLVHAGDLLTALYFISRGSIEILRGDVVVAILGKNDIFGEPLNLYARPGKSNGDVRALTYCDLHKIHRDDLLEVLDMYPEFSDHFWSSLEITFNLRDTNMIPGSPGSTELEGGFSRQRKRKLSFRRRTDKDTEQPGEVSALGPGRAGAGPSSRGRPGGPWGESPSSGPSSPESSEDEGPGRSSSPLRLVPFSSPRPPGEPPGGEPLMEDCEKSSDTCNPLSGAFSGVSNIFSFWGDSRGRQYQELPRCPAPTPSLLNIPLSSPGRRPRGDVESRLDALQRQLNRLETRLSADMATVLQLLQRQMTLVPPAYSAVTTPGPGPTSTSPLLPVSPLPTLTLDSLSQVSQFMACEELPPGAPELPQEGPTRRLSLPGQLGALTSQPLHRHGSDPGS
CYP2C9, sequence (P11712 whole entry): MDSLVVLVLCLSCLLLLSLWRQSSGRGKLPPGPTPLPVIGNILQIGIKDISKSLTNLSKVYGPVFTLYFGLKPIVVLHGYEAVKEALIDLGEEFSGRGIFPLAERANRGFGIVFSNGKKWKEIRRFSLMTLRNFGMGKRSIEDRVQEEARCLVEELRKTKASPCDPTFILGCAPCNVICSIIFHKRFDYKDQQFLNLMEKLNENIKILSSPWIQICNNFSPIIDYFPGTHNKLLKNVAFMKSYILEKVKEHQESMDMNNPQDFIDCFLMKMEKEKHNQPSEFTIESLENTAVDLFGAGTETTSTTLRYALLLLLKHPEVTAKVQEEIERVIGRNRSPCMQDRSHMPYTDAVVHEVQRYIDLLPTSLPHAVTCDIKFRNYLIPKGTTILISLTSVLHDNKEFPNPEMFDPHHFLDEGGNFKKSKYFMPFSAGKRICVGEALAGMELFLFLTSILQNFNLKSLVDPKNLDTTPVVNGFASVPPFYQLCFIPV
CYP2C19, sequence (P33261 whole entry): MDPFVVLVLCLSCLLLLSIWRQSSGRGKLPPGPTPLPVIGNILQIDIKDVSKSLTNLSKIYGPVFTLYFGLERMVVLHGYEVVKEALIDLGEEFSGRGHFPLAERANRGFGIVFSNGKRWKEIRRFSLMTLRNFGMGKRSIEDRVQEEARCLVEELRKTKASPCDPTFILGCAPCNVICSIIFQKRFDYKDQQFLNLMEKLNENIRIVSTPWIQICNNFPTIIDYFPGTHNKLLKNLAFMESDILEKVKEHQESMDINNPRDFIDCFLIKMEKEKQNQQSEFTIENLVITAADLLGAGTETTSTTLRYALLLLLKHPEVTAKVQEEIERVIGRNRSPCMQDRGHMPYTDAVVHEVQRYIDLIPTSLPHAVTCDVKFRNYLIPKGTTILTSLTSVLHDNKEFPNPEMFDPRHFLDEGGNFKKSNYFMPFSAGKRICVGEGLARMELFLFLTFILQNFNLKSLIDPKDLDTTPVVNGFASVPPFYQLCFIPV
CYP2D6, sequence (P10635 whole entry): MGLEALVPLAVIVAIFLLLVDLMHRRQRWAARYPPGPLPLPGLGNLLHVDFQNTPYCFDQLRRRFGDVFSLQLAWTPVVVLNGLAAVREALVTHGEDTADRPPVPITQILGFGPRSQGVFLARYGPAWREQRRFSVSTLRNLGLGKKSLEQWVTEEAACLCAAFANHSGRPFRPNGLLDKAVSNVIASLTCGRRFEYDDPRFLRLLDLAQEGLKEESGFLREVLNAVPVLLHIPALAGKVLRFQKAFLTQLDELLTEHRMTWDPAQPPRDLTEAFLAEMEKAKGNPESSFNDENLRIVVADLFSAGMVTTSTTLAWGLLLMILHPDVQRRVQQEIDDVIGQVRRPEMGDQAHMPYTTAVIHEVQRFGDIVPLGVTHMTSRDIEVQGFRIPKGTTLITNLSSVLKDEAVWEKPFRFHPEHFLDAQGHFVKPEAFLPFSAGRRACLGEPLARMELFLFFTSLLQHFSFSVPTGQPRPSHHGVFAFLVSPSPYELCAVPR

With `Cc1cc(-c2noc(C(F)(F)F)n2)ccc1OCCCc1cc(C(=O)N(C)C)no1` [compound 11526092, 3-(3-methyl-4-(3-(3-N,N-dimethylcarbamoyl-isoxazol-5-yl)propoxy)phenyl)-5-trifluoromethyl-1,2,4-oxadiazole] as the molecule, how does the EC50 [1] read?
Its EC50 is < 0.032 µM.

And the EC50 [2]?
The EC50 was 0.016 µM.

And the EC50 (SARS-CoV-2 USA/WA1/2020)?
The EC50 was > 7.54 µM.

What about the EC50 [3] of the same molecule?
The EC50 was 0.028 µM.

And the EC50 (EV-71 Tainan/4643/98 [4])?
The EC50 was 4.24 µM.

And the CC50 (MDCK)?
The CC50 was 44.8 µM.

And the EC90 (EV-71 Tainan/4643/98 [5])?
The EC90 was 2.45 µM.

What about the EC50 [6] of the same molecule?
The EC50 was < 0.032 µM.

What about the EC50 (Coxsackievirus B5 (CVB5); read-out: 50% Effective concentration EC50) of the same molecule?
The EC50 was 0.001 µM.

And the EC50 (Coxsackievirus B5 (CVB5); read-out: EC50 against CVB5, Vero cells, text values (Fig. S3))?
Its EC50 is 0.0011 µM.

And the “Effect on CYP3A4 (in words)” value (CYP3A4 [7]; human liver microsomes, at higher concentrations (Fig. S21))?
Its value is “activation (or autoactivation) of CYP3A4; also recorded: * CYP3A4 demonstrates activation with 11526092”.

And the IC50 (CYP3A4 [7]; read-out: CYP inhibition, CYP3A4)?
Its IC50 is > 50 µM.

And the “PXR agonism (in words)” value [8]?
The value was “neither 11526092 nor pleconaril is an agonist”.

What about the EC50 ([8]; read-out: PXR EC50) of the same molecule?
Its EC50 is > 100 µM.

What about the EC50 (EV-D68 US/KY/14-18953) of the same molecule?
The EC50 was 0.042 µM.

And the EC50 (Coxsackie B3 Nancy)?
The EC50 was 1.27 µM.

And the CC50 (RD; read-out: 50% Cytotoxic concentration CC50, line of EV-D68 US/KY/14-18953)?
The CC50 was 2.4 µM.

What about the CC50 (RD; read-out: 50% Cytotoxic concentration CC50, line of EV-D68 US/MO/14-18949) of the same molecule?
The CC50 was 28 µM.

What about the CC50 (RD; read-out: 50% Cytotoxic concentration CC50, line of Human Echovirus-11) of the same molecule?
The CC50 was 18 µM.

And the CC50 (RD; read-out: 50% Cytotoxic concentration CC50, line of Human Echovirus-30)?
The CC50 was 11 µM.

And the IC50 (hERG)?
The IC50 was > 100 µM.

And the EC90 [9]?
Its EC90 is < 0.032 µM.

And the “Caco-2 Efflux ratio” value (Caco-2)?
Its value is 3.5.

And the “Caco-2 Papp A-B” value (Caco-2)?
Its value is 880 ×10⁻⁶ cm/s.

And the “Caco-2 Papp B-A” value (Caco-2)?
The value was 3090 ×10⁻⁶ cm/s.

What about the “P-gp substrate (in words, from Caco-2 data)” value (Caco-2) of the same molecule?
The value was “likely a P-gp substrate”.

What about the “CYP3A induction, of control” value (CYP3A4 [10]) of the same molecule?
Its value is 3 % of control.

And the CYP3A induction (CYP3A4 [10]; single donor in duplicate)?
The CYP3A induction was 1.2 x.

What about the “Human liver microsomes stability (in words)” value [11] of the same molecule?
Its value is “metabolically stable”.

And the “Human liver microsomes T1/2” value ([11]; human)?
Its value is 55.3 min.

And the “Human liver microsomes clearance” value ([11]; human)?
Its value is 25.1 μL /min/mg protein.

What about the CC50 (Vero 76) of the same molecule?
The CC50 was 10.8 µM.

And the CC50 (Vero 76; read-out: 50% Cytotoxic concentration CC50, Vero 76, line of Coxsackie B3 HA 201933)?
The CC50 was 8 µM.

What about the CC50 (Vero 76; read-out: 50% Cytotoxic concentration CC50, Vero 76, line of Coxsackie B3 Nancy) of the same molecule?
Its CC50 is 8 µM.

What about the CC50 (Vero 76; read-out: 50% Cytotoxic concentration CC50, Vero 76, line of EV-71) of the same molecule?
Its CC50 is 8.25 µM.

And the CC50 (Vero 76; read-out: 50% Cytotoxic concentration CC50, Vero 76, line of SARS-CoV-2)?
Its CC50 is 7.54 µM.

And the EC50 (EV-D68)?
Its EC50 is 0.059 µM.

And the IC50 (CYP2C9)?
The IC50 was 5 µM.

And the “Mean day of death” value ([12]; 1 mg 11526092-treated group)?
Its value is 6.3 days.

And the “Mean day of death” value ([12]; 3 mg 11526092-treated group)?
Its value is 5.4 days.

And the “Mean day of death” value ([12]; 10 mg 11526092-treated group)?
The value was 4.3 days.

And the “Efficacy in the acute flaccid myelitis neurological infection model” value ([12]; abstract)?
Its value is “did not show efficacy”.

And the Neurological scores ([12]; post-challenge study)?
The Neurological scores was “none of the 1526092-treated mice showed a statistically significant reduction in neurological scores”.

And the “Protection from challenge infection (in words)” value ([12]; pre-challenge study)?
Its value is “None of the pre-challenge 1526092-treated mice were protected from challenge infection”.

What about the Mouse plasma stability (Mouse plasma stability) of the same molecule?
Its Mouse plasma stability is 81.1% @ 5 hr, 37 °C.

What about the IC50 (CYP2D6) of the same molecule?
The IC50 was > 50 µM.

And the IC50 (CYP2C19)?
Its IC50 is 2.1 µM.

And the Human plasma stability (Human plasma stability)?
Its Human plasma stability is 93.9% @ 5 hr, 37 °C.

Source: publication PMC10527014 (Antiviral research, 2023)
